Assays:
[1] = molecular target: T1, Muscarinic acetylcholine receptor M1 (Homo sapiens, UniProt P11229); experiment: Agonist activity at human muscarinic M1 receptor expressed in CHO cells assessed as effect on acetylcholine-induced intracellular calcium level by FLIPR assay; format: functional, cell-based
T1 sequence (P11229 whole entry): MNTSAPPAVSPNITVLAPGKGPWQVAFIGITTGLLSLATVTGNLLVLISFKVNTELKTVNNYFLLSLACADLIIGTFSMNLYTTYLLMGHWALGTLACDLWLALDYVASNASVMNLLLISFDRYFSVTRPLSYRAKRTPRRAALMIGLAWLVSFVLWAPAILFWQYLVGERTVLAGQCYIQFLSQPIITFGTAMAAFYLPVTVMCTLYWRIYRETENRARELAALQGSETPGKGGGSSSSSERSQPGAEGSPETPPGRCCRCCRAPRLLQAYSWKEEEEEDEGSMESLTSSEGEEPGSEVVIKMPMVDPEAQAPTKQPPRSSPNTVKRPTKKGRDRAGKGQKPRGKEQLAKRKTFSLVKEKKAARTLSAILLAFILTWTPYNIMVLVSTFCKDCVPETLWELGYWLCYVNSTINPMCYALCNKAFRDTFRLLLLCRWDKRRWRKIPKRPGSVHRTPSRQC

[2] = molecular target: T2, Muscarinic acetylcholine receptor M1 (Homo sapiens) (UniProt P11229); experiment: Intrinsic activity at human muscarinic M1 receptor expressed in CHO cells assessed as effect on acetylcholine-induced intracellular calcium level by FLIPR assay relative to acetylcholine; format: functional, cell-based
T2 sequence (whole entry): T1 sequence (P11229 whole entry)

| SMILES | EC50 [1] | Intrinsic activity [2] |
| --- | --- | --- |
| O=C(NCC1CCNCC1)c1ccccc1-c1cc(F)cc(Cl)c1 | > 10000 nM | 17% |
| O=C(NCC1CCNCC1)c1ccccc1-c1cc(Cl)cc(Cl)c1 | > 10000 nM | 24% |
| O=C(NCC1CCNCC1)c1ccccc1-c1ccc(F)c(Cl)c1 | 25.1 nM | 76% |
| O=C(NCC12CCN(CC1)CC2)c1ccccc1-c1nc(Cl)cs1 | 251 nM | 63% |
| CC1CC(CNC(=O)c2ccccc2-c2cccc(Cl)c2)CCN1 (stereo not drawn) | > 10000 nM | 28% |
| Cc1cc(Cl)cc(-c2ccccc2C(=O)NCC2CCNCC2)c1 | 1580 nM | 52% |
| CC1(CNC(=O)c2ccccc2-c2cccc(Cl)c2)CCNCC1 | > 10000 nM | 45% |
| CN(CC1CCNCC1)C(=O)c1ccccc1-c1cccc(Cl)c1 | > 10000 nM | 2% |

The next lines start with the values.

| EC50 [1] | Intrinsic activity [2] | SMILES |
| --- | --- | --- |
| 1000 nM | 66% | O=C(NCC1CCNCC1)c1ccccc1-c1cccc(Cl)c1F |
| > 10000 nM | 5% | Cc1c(Cl)cccc1-c1ccccc1C(=O)NCC1CCNCC1 |
| 39.8 nM | 100% | O=C(NCC1CCNCC1)c1ccccc1-c1cc(Cl)ccc1Cl |
| > 10000 nM | 16% | O=C(NCC1CCNCC1)c1ccccc1-c1cccc(Cl)c1Cl |
| 50.1 nM | 59% | O=C(NCC1CCNCC1)c1ccccc1-c1ccc(Cl)c(Cl)c1 |
| 158 nM | 86% | Cc1ccc(Cl)cc1-c1ccccc1C(=O)NCC1CCNCC1 |

Source: ChEMBL document CHEMBL1158607, “2' biaryl amides as novel and subtype selective M1 agonists. Part I: Identification, synthesis, and initial SAR” (Bioorg Med Chem Lett, 2010)
